In PubChem BioAssay AID488801 (NMMLSC, 2010) one finds EC50 data, which are given here for 21 compounds.

Structures are written as SMILES. Calls of active or inactive are those of the source.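 Rule for the calls: active = EC50 at or below 33 microM; inactive = the rest.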

The target of the assay is Ammonium transporter MEP2 (Saccharomyces cerevisiae (strain ATCC 204508 / S288c)) (UniProt P41948). Description: yeast MEP2-GFP fusion level changes, TOR pathway – flow cytometry, KU SAR set, S. cerevisiae, dose response (AID 488801). The settings on record: flow cytometry MCF, 3 h. For orientation: A flow cytometer gives signals particle by particle.
Sequence of Ammonium transporter MEP2 (Saccharomyces cerevisiae (strain ATCC 204508 / S288c)) (P41948 whole entry, looked up, the tested form may be a part): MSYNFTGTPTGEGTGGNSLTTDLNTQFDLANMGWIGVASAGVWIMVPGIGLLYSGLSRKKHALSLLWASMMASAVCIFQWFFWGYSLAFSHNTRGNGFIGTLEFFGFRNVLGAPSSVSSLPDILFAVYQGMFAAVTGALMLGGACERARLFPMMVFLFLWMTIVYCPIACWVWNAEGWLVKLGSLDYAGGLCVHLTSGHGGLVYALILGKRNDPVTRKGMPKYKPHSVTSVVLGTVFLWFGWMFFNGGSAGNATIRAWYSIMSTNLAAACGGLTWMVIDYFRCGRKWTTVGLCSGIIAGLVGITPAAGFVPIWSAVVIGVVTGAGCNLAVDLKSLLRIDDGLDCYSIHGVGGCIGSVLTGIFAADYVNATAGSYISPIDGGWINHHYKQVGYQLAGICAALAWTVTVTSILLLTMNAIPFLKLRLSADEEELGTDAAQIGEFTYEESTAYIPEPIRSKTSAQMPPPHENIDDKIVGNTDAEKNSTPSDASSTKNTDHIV
In the case of `CNc1nc(N)c([N+](=O)[O-])c(Nc2cccc(Cl)c2)n1`, the EC50 was 2.72 µM.

As to `O=C(Oc1c(Cl)cc(Cl)c2cccnc12)c1ccco1`, the EC50 result is “inactive”.

Turning to `O=C(Nc1nc(-c2ccccn2)cs1)C1COc2ccccc2O1` (stereo unspecified), the EC50 result is “inactive”. As for `C/C(=N\NC(=O)c1cccc(Br)c1)c1ccccn1`, the entry is “inactive”; as for `Nc1cc(Oc2cccc(Cl)c2)nc(NCc2ccccc2)n1`, “inactive”. Take `CSC1=NS(=O)(=O)c2c(C)nn(C)c2S1`: the EC50 entry was “inactive”. As to `CCN(CC)C(=O)Oc1ccnc2cc(Cl)ccc12`, the EC50 result is “inactive”. In the case of `O=C(Nc1nc(-c2ccccn2)cs1)c1cc2ccccc2o1`, the EC50 entry is “inactive”. With `Cc1ccc(S(=O)(=O)c2ncccc2[N+](=O)[O-])cc1`, the EC50 result is “inactive”. For the compound `O=C(OCC(=O)N1CCN(C(=O)c2ccco2)CC1)c1cc(-c2cccc(Br)c2)nc2ccccc12`, the EC50 entry is “inactive”. For `O=C(Oc1c(Cl)cc(Cl)c2cccnc12)c1cccc([N+](=O)[O-])c1`, the EC50 result was “inactive”. On to `C/C(=N\NC(=O)c1ccc(C(C)(C)C)cc1)c1ccccn1`, for which the EC50 result is “inactive”. As for `Cc1cc(C(=O)Nc2nc(-c3ccccn3)cs2)ccc1[N+](=O)[O-]`, the entry is “inactive”; as for `Nc1cc(Nc2cccc(F)c2)nc(NCc2ccccc2)n1`, “inactive”. As for `COc1ccc([N+](=O)[O-])c(S(=O)(=O)c2ccccc2)n1`, the entry is “inactive”; as for `Cc1ccc(C(c2cc(Cl)c3cccnc3c2O)N2CCN(C)CC2)cc1` (stereo unspecified), “inactive”.

Regarding `Cc1ccc(/C=C2/C(=O)ON=C2c2ccccc2)o1`, the EC50 entry is “inactive”. As for `CNc1nc(N)c([N+](=O)[O-])c(NCC2CCCO2)n1` (stereo unspecified), the entry is “inactive”; as for `CNc1nc(N)c([N+](=O)[O-])c(Nc2cccc(F)c2)n1`, 15.8 µM. In the case of `O=C(Oc1ccnc2cc(Cl)ccc12)N1CCCCCC1`, the EC50 was 3.97 µM. Take `CN1CCN(C(c2ccc(C(F)(F)F)cc2)c2ccc3cccnc3c2O)CC1` (stereo unspecified): the EC50 result is “inactive”.

One may read the EC50 as the concentration giving half of the maximal effect.
